From patent US9719127B2, “Dual inducible vectors and cell lines” (priority 2012, dated 2017) come the findings set out here.

For one assay, the system named is X4-tropic viruses. Nature of the assay: GGR cell G.Luc signal with X4-tropic viruses. The assay is classed as cell-based, HIV. The following applies: GGR cells, low endogenous CXCR4.
In assay [1] the test system is CCR5-using HIV-1 isolate (live, replication-competent JR-CSF).

Take Maraviroc: the “G.Luc signal with X4-tropic viruses under maraviroc” value in the assay on X4-tropic viruses is “resistant to maraviroc inhibition”. Moreover, the “Gaussia luciferase signal of CCR5-mediated infection in the presence of maraviroc” value in assay [1] is given as “reproducibly reduced”.
